Read-outs that look alike come from different tables or passages of the source.
What was measured:
Format in all cases: in vivo
Coptotermes formosanus = details: for INSECT ACTIVIIS 0-4: scale 0 death, 4 normal behaviour; for % Mortality: 0.15 % v/v on ground Sabal palm
Protocol: (§1) Bioassay tubes were loaded with 0.2 g of finely ground Sabal palm materials into microtubes. One mL of dilute active ingredient (described below) was applied to the tube and fully absorbed by the palm materials. The tubes were placed in petri dishes on a 3 mm sand base. Thirty to forty workers and soldiers from the field-collected Reticulitermes and Coptotermes colonies were introduced to the petri dishes. Termite activity was evaluated on a 0-4 scale, with 0 denoting death and 4 indicating normal behaviour. Mortality was recorded weekly for up to 9 weeks, depending on survivorship.

Reticulitermes flavipes [1] = details: for INSECT ACTIVIIS 0-4: scale 0 death, 4 normal behaviour; for % Mortality: 0.15 % v/v on ground Sabal palm
Protocol: as §1

Reticulitermes flavipes [2] = details: 10 ppmai; 2 DA-A
[3] = 7.5 ppmai on ground Sabal palm, 5 DA-A
[4] = 75 ppmai on ground Sabal palm, 5 DA-A
[5] = 150 ppmai on ground Sabal palm, 5 DA-A
[6] = 300 ppmai on ground Sabal palm, 5 DA-A

CNC(=O)c1cc(Cl)cc(C)c1NC(=O)c1cc(Br)nn1-c1ncccc1Cl [Chlorantraniliprole]
TUNNEL LENGTH (Coptotermes formosanus; 1 ppmai, 2 DA-A): 4 CM | INSECT ACTIVIIS 0-4 (Coptotermes formosanus; 1 ppmai, 2 DA-A): 3.3 0-4 | INSECT % MORTAL (Coptotermes formosanus; 1 ppmai, 7 DA-A): 5.4% | INSECT ACTIVIIS 0-4 (Coptotermes formosanus; 1 ppmai, 7 DA-A): 3.8 0-4 | INSECT % MORTAL (Coptotermes formosanus; 1 ppmai, 9 DA-A): 2.3% | INSECT % MORTAL (Coptotermes formosanus; 1 ppmai, 20 DA-A): 93.4% | INSECT ACTIVIIS 0-4 (Coptotermes formosanus; 1 ppmai, 20 DA-A): 0.5 0-4 | TUNNEL LENGTH (Coptotermes formosanus; 10 ppmai, 2 DA-A): 4 CM | INSECT ACTIVIIS 0-4 (Coptotermes formosanus; 10 ppmai, 2 DA-A): 4 0-4 | INSECT % MORTAL (Coptotermes formosanus; 10 ppmai, 7 DA-A): 1.3% | INSECT ACTIVIIS 0-4 (Coptotermes formosanus; 10 ppmai, 7 DA-A): 3.3 0-4 | INSECT % MORTAL (Coptotermes formosanus; 10 ppmai, 9 DA-A): 1.5% | INSECT % MORTAL (Coptotermes formosanus; 10 ppmai, 20 DA-A): 91.1% | INSECT ACTIVIIS 0-4 (Coptotermes formosanus; 10 ppmai, 20 DA-A): 0.8 0-4 | TUNNEL LENGTH (Coptotermes formosanus; 50 ppmai, 2 DA-A): 1 CM | INSECT ACTIVIIS 0-4 (Coptotermes formosanus; 50 ppmai, 2 DA-A): 1.5 0-4 | INSECT % MORTAL (Coptotermes formosanus; 50 ppmai, 7 DA-A): 23.2% | INSECT ACTIVIIS 0-4 (Coptotermes formosanus; 50 ppmai, 7 DA-A): 1 0-4 | INSECT % MORTAL (Coptotermes formosanus; 50 ppmai, 9 DA-A): 90.8% | INSECT % MORTAL (Coptotermes formosanus; 50 ppmai, 20 DA-A): 100% | INSECT ACTIVIIS 0-4 (Coptotermes formosanus; 50 ppmai, 20 DA-A): 0 0-4 | TUNNEL LENGTH (Coptotermes formosanus; 100 ppmai, 2 DA-A): 1.5 CM | INSECT ACTIVIIS 0-4 (Coptotermes formosanus; 100 ppmai, 2 DA-A): 1 0-4 | INSECT % MORTAL (Coptotermes formosanus; 100 ppmai, 7 DA-A): 60.5% | INSECT ACTIVIIS 0-4 (Coptotermes formosanus; 100 ppmai, 7 DA-A): 1 0-4 | INSECT % MORTAL (Coptotermes formosanus; 100 ppmai, 9 DA-A): 98.3% | INSECT % MORTAL (Coptotermes formosanus; 100 ppmai, 20 DA-A): 100% | INSECT ACTIVIIS 0-4 (Coptotermes formosanus; 100 ppmai, 20 DA-A): 0 0-4 | TUNNEL LENGTH (Reticulitermes flavipes [1]; 1 ppmai, 2 DA-A): 4 CM | INSECT ACTIVIIS 0-4 (Reticulitermes flavipes [1]; 1 ppmai, 2 DA-A): 4 0-4 | INSECT % MORTAL (Reticulitermes flavipes [1]; 1 ppmai, 7 DA-A): 0.8% | INSECT ACTIVIIS 0-4 (Reticulitermes flavipes [1]; 1 ppmai, 7 DA-A): 4 0-4 | INSECT % MORTAL (Reticulitermes flavipes [1]; 1 ppmai, 9 DA-A): 2.4% | INSECT % MORTAL (Reticulitermes flavipes [1]; 1 ppmai, 20 DA-A): 4.1% | INSECT ACTIVIIS 0-4 (Reticulitermes flavipes [1]; 1 ppmai, 20 DA-A): 4 0-4 | INSECT ACTIVIIS 0-4 (Reticulitermes flavipes [1]; 10 ppmai, 2 DA-A): 3.3 0-4 | INSECT % MORTAL (Reticulitermes flavipes [1]; 10 ppmai, 7 DA-A): 0.2% | INSECT ACTIVIIS 0-4 (Reticulitermes flavipes [1]; 10 ppmai, 7 DA-A): 4 0-4 | INSECT % MORTAL (Reticulitermes flavipes [1]; 10 ppmai, 9 DA-A): 0.5% | INSECT % MORTAL (Reticulitermes flavipes [1]; 10 ppmai, 20 DA-A): 4.92% | INSECT ACTIVIIS 0-4 (Reticulitermes flavipes [1]; 10 ppmai, 20 DA-A): 4 0-4 | TUNNEL LENGTH (Reticulitermes flavipes [1]; 50 ppmai, 2 DA-A): 2 CM | INSECT ACTIVIIS 0-4 (Reticulitermes flavipes [1]; 50 ppmai, 2 DA-A): 2.3 0-4 | INSECT % MORTAL (Reticulitermes flavipes [1]; 50 ppmai, 7 DA-A): 13% | INSECT ACTIVIIS 0-4 (Reticulitermes flavipes [1]; 50 ppmai, 7 DA-A): 2 0-4 | INSECT % MORTAL (Reticulitermes flavipes [1]; 50 ppmai, 9 DA-A): 94.7% | INSECT % MORTAL (Reticulitermes flavipes [1]; 50 ppmai, 20 DA-A): 100% | INSECT ACTIVIIS 0-4 (Reticulitermes flavipes [1]; 50 ppmai, 20 DA-A): 0 0-4 | TUNNEL LENGTH (Reticulitermes flavipes [1]; 100 ppmai, 2 DA-A): 1 CM | INSECT ACTIVIIS 0-4 (Reticulitermes flavipes [1]; 100 ppmai, 2 DA-A): 1.3 0-4 | INSECT % MORTAL (Reticulitermes flavipes [1]; 100 ppmai, 7 DA-A): 15% | INSECT ACTIVIIS 0-4 (Reticulitermes flavipes [1]; 100 ppmai, 7 DA-A): 1 0-4 | INSECT % MORTAL (Reticulitermes flavipes [1]; 100 ppmai, 9 DA-A): 100% | INSECT % MORTAL (Reticulitermes flavipes [1]; 100 ppmai, 20 DA-A): 100% | INSECT ACTIVIIS 0-4 (Reticulitermes flavipes [1]; 100 ppmai, 20 DA-A): 0 0-4 | TUNNEL LENGTH (Reticulitermes flavipes [2]): 4 CM

CNC(=O)c1cc(C#N)cc(C)c1NC(=O)c1cc(Br)nn1-c1ncccc1Cl [Cyantraniliprole]
% MORT (Coptotermes formosanus; 5 ppmai on ground Sabal palm, 5 DA-A): 0.5% | % MORT (Coptotermes formosanus; 5 ppmai on ground Sabal palm, 11 DA-A): 1.2% | % MORT (Coptotermes formosanus; 5 ppmai on ground Sabal palm, 19 DA-A): 1.2% | % MORT (Coptotermes formosanus; 5 ppmai on ground Sabal palm, 37 DA-A): 1.2% | % MORT (Coptotermes formosanus; 50 ppmai on ground Sabal palm, 5 DA-A): 3.9% | % MORT (Coptotermes formosanus; 50 ppmai on ground Sabal palm, 11 DA-A): 100% | % MORT (Coptotermes formosanus; 50 ppmai on ground Sabal palm, 19 DA-A): 100% | % MORT (Coptotermes formosanus; 50 ppmai on ground Sabal palm, 37 DA-A): 100% | % MORT (Coptotermes formosanus; 100 ppmai on ground Sabal palm, 5 DA-A): 49.3% | % MORT (Coptotermes formosanus; 100 ppmai on ground Sabal palm, 11 DA-A): 100% | % MORT (Coptotermes formosanus; 100 ppmai on ground Sabal palm, 19 DA-A): 100% | % MORT (Coptotermes formosanus; 100 ppmai on ground Sabal palm, 37 DA-A): 100% | % MORT (Coptotermes formosanus; 200 ppmai on ground Sabal palm, 5 DA-A): 80.1% | % MORT (Coptotermes formosanus; 200 ppmai on ground Sabal palm, 11 DA-A): 100% | % MORT (Coptotermes formosanus; 200 ppmai on ground Sabal palm, 19 DA-A): 100% | % MORT (Coptotermes formosanus; 200 ppmai on ground Sabal palm, 37 DA-A): 100%

COC(=O)N(C(=O)N1CO[C@@]2(C(=O)OC)Cc3cc(Cl)ccc3C2=N1)c1ccc(OC(F)(F)F)cc1 [Indoxacarb]
% MORT (Coptotermes formosanus; [3]): 0% | % MORT (Coptotermes formosanus; 7.5 ppmai on ground Sabal palm, 7 DA-A): 0% | % MORT (Coptotermes formosanus; 7.5 ppmai on ground Sabal palm, 12 DA-A): 0% | % MORT (Coptotermes formosanus; 7.5 ppmai on ground Sabal palm, 20 DA-A): 2.5% | % MORT (Coptotermes formosanus; 7.5 ppmai on ground Sabal palm, 28 DA-A): 5% | % MORT (Coptotermes formosanus; 7.5 ppmai on ground Sabal palm, 42 DA-A): 90% | % MORT (Coptotermes formosanus; [4]): 0.013% | % MORT (Coptotermes formosanus; 75 ppmai on ground Sabal palm, 7 DA-A): 0.038% | % MORT (Coptotermes formosanus; 75 ppmai on ground Sabal palm, 12 DA-A): 11.68% | % MORT (Coptotermes formosanus; 75 ppmai on ground Sabal palm, 20 DA-A): 35% | % MORT (Coptotermes formosanus; 75 ppmai on ground Sabal palm, 28 DA-A): 93.8% | % MORT (Coptotermes formosanus; 75 ppmai on ground Sabal palm, 42 DA-A): 100% | % MORT (Coptotermes formosanus; [5]): 0% | % MORT (Coptotermes formosanus; 150 ppmai on ground Sabal palm, 7 DA-A): 0.013% | % MORT (Coptotermes formosanus; 150 ppmai on ground Sabal palm, 12 DA-A): 17.48% | % MORT (Coptotermes formosanus; 150 ppmai on ground Sabal palm, 20 DA-A): 37.5% | % MORT (Coptotermes formosanus; 150 ppmai on ground Sabal palm, 28 DA-A): 98.8% | % MORT (Coptotermes formosanus; 150 ppmai on ground Sabal palm, 42 DA-A): 100% | % MORT (Coptotermes formosanus; [6]): 0% | % MORT (Coptotermes formosanus; 300 ppmai on ground Sabal palm, 7 DA-A): 0% | % MORT (Coptotermes formosanus; 300 ppmai on ground Sabal palm, 12 DA-A): 17.5% | % MORT (Coptotermes formosanus; 300 ppmai on ground Sabal palm, 20 DA-A): 93.8% | % MORT (Coptotermes formosanus; 300 ppmai on ground Sabal palm, 28 DA-A): 100% | % MORT (Coptotermes formosanus; 300 ppmai on ground Sabal palm, 42 DA-A): 100% | % MORT (Reticulitermes flavipes [1]; 7.5 ppmai on ground Sabal palm, 3 DA-A): 9.66% | % MORT (Reticulitermes flavipes [1]; [3]): 56.71% | % MORT (Reticulitermes flavipes [1]; 7.5 ppmai on ground Sabal palm, 10 DA-A): 99.79% | % MORT (Reticulitermes flavipes [1]; 75 ppmai on ground Sabal palm, 3 DA-A): 16.59% | % MORT (Reticulitermes flavipes [1]; [4]): 87.91% | % MORT (Reticulitermes flavipes [1]; 75 ppmai on ground Sabal palm, 10 DA-A): 100% | % MORT (Reticulitermes flavipes [1]; 150 ppmai on ground Sabal palm, 3 DA-A): 22.94% | % MORT (Reticulitermes flavipes [1]; [5]): 87.84% | % MORT (Reticulitermes flavipes [1]; 150 ppmai on ground Sabal palm, 10 DA-A): 100% | % MORT (Reticulitermes flavipes [1]; 300 ppmai on ground Sabal palm, 3 DA-A): 47.09% | % MORT (Reticulitermes flavipes [1]; [6]): 98.42% | % MORT (Reticulitermes flavipes [1]; 300 ppmai on ground Sabal palm, 10 DA-A): 100%

O=C(NC(=O)c1c(F)cccc1F)Nc1cc(Cl)c(OC(F)(F)C(F)C(F)(F)F)cc1Cl (stereo not shown) [Lufenuron]
% Mortality (Coptotermes formosanus; 4 DA-A): 4.38% | % Mortality (Coptotermes formosanus; 7 DA-A): 7.5% | % Mortality (Coptotermes formosanus; 11 DA-A): 14.38% | % Mortality (Coptotermes formosanus; 18 DA-A): 21.25% | % Mortality (Coptotermes formosanus; 25 DA-A): 45% | % Mortality (Coptotermes formosanus; 32 DA-A): 93.8% | % Mortality (Coptotermes formosanus; 41 DA-A): 100% | % Mortality (Reticulitermes flavipes [1]; 4 DA-A): 11.25% | % Mortality (Reticulitermes flavipes [1]; 7 DA-A): 50% | % Mortality (Reticulitermes flavipes [1]; 11 DA-A): 51.25% | % Mortality (Reticulitermes flavipes [1]; 18 DA-A): 51.25% | % Mortality (Reticulitermes flavipes [1]; 25 DA-A): 51.88% | % Mortality (Reticulitermes flavipes [1]; 32 DA-A): 68.75% | % Mortality (Reticulitermes flavipes [1]; 41 DA-A): 70.63% | % Mortality (Reticulitermes flavipes [1]; 53 DA-A): 86.25% | % Mortality (Reticulitermes flavipes [1]; 63 DA-A): 96.25%

— patent US11122789B2, “Termite preferred resource compositions and methods” (priority 2015, dated 2021)
